Legend:
[1] = tested on: Glomerella lagenarium (Colletotrichum lagenarium); assay: Glomerella lagenarium (Colletotrichum lagenarium) liquid culture / cucumber / preventative (anthracnose); type: cell-based; conditions: Colletotrichum orbiculare; 20 ppm in the applied formulation; conidia in PDB nutrient broth, 24° C.; 3 to 4 days after application; compared to untreated; read-out: disease control (inhibition of growth measured photometrically)
Procedure, shortened: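 Cryostored conidia in potato dextrose broth added to compound diluted from DMSO solution, 96-well format. Plates incubated at 24 °C. Growth inhibition read photometrically 3 to 4 days after application, as percent activity versus untreated check.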

[2] = tested on: Puccinia recondita f. sp. Tritici; assay: Puccinia recondita f. sp. tritici / wheat / leaf disc curative (brown rust); type: in vivo; conditions: foliar, 200 ppm in the applied formulation, wheat leaf segments cv. Kanzler, applied 1 day after inoculation, compared to untreated, assessed 6 to 8 days after application, read-out: disease control
Procedure, shortened: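 Read-out is percent disease control relative to untreated segments, assessed 6 to 8 days after treatment once check disease is adequate. Kanzler wheat leaf segments on agar receive fungal spores, then test compound (DMSO stock diluted in 0.025% Tween20 or water) 1 day later, under 19° C and 75% relative humidity.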

[3] = tested on: Phakopsora pachyrhizi; assay: Phakopsora pachyrhizi / soybean / leaf disc preventative (Asian soybean rust); type: in vivo; conditions: foliar, 200 ppm in the applied formulation, soybean leaf disks, inoculated one day after application, compared to untreated, assessed 12 to 14 days after application, read-out: disease control
Description: Leaf disks or leaf segments of various plant species are cut from plants grown in a greenhouse. The cut leaf disks or segments are placed in multiwell plates (24-well format) onto water agar. The leaf disks are sprayed with a test solution before (preventative) or after (curative) inoculation. Compounds to be tested are prepared as DMSO solutions (max. 10 mg/ml) which are diluted to the appropriate concentration with 0.025% Tween20 just before spraying. The inoculated leaf disks or segments are incubated under defined conditions (temperature, relative humidity, light, etc.) according to the respective test system. A single evaluation of disease level is carried out 3 to 14 days after inoculation, depending on the pathosystem. Percent disease control relative to the untreated check leaf disks or segments is then calculated.
Soybean leaf disks are placed on water agar in multiwell plates (24-well format) and sprayed with the formulated test compound diluted in water. One day after application leaf discs are inoculated by spraying a spore suspension on the lower leaf surface. After an incubation period in a climate cabinet of 24-36 hours in darkness at 20° C. and 75% rh leaf disc are kept at 20° C. with 12 h light/day and 75% rh. The activity of a compound is assessed as percent disease control compared to untreated when an appropriate level of disease damage appears in untreated check leaf disks (12 to 14 days after application).
The following compounds at 200 ppm in the applied formulation give at least 80% disease control in this test when compared to untreated control leaf disks under the same conditions, which show extensive disease development.

[4] = tested on: Puccinia recondita f. sp. Tritici; assay: Puccinia recondita f. sp. tritici / wheat / leaf disc preventative (brown rust); type: in vivo; conditions: foliar, 200 ppm in the applied formulation, wheat leaf segments cv. Kanzler, inoculated 1 day after application, compared to untreated, assessed 7 to 9 days after application, read-out: disease control
Procedure, shortened: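 Wheat cv. Kanzler leaf segments on agar sprayed with diluted compound, inoculated with brown rust spores 1 day later. Kept at 19° C., 75% rh, 12 h light/dark; percent disease control versus untreated segments scored 7 to 9 days after application, compounds tested at 200 ppm.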

SMILES	melting point [°C]	inhibition at 20 ppm [1] [%]	pest or weed control at 200 ppm [2] [%]	pest or weed control at 200 ppm [3] [%]	pest or weed control at 200 ppm [4] [%]
CN(C)S(=O)(=O)N(C)Cc1ccc(-c2noc(C(F)(F)F)n2)cc1 [Compound 1.12, N-(dimethylsulfamoyl)-N-methyl-1-[4-[5-(trifluoromethyl)-1,2,4-oxadiazol-3-yl]phenyl] methanamine]	77 to 79	≥ 80	≥ 80	≥ 80	≥ 80
O=S(=O)(NCc1ccc(-c2noc(C(F)(F)F)n2)cc1)c1ccccc1F [Compound 3.7, 2-fluoro-N-[[4-[5-(trifluoromethyl)-1,2,4-oxadiazol-3-yl]phenyl]methyl] benzenesulfonamide]	120 to 123	≥ 80		≥ 80	≥ 80
O=S(=O)(C1CC1)N(Cc1ccc(-c2noc(C(F)(F)F)n2)cc1)C1CC1 [Compound 1.2, N-cyclopropyl-N-[[4-[5-(trifluoromethyl)-1,2,4-oxadiazol-3-yl]phenyl]methyl] cyclopropanesulfonamide]	90 to 92	≥ 80		≥ 80	≥ 80
CCN(C(C)c1ccc(-c2noc(C(F)(F)F)n2)cc1)S(C)(=O)=O (stereo not drawn) [Compound 4.1, N-ethyl-N-[1-[4-[5-(trifluoromethyl)-1,2,4-oxadiazol-3-yl]phenyl]ethyl] methanesulfonamide]		≥ 80	≥ 80	≥ 80	≥ 80
O=S(=O)(Nc1ccc(-c2noc(C(F)(F)F)n2)cc1)c1ccccc1 [Compound 3.35, N-[4-[5-(trifluoromethyl)-1,2,4-oxadiazol-3-yl]phenyl]benzene-sulfonamide]	115 to 130	≥ 80		≥ 80	≥ 80
O=S(=O)(Nc1ccc(-c2noc(C(F)(F)F)n2)cc1)C1CC1 [Compound 3.33, N-[4-[5-(trifluoromethyl)-1,2,4-oxadiazol-3-yl]phenyl]cyclo-propanesulfonamide]	130 to 140	≥ 80		≥ 80	≥ 80
CON(C(C)Cc1ccc(-c2noc(C(F)(F)F)n2)cc1)S(C)(=O)=O (stereo not drawn) [Compound 4.2, N-methoxy-N-[1-methyl-2-[4-[5-(trifluoromethyl)-1,2,4-oxadiazol-3-yl]phenyl]ethyl] methanesulfonamide]		≥ 80		≥ 80	≥ 80
CCN(Cc1ccc(-c2noc(C(F)(F)F)n2)c(F)c1)S(C)(=O)=O [Compound 1.102, N-ethyl-N-[[3-fluoro-4-[5-(trifluoromethyl)-1,2,4-oxadiazol-3-yl]phenyl]methyl] methanesulfonamide]		≥ 80	≥ 80	≥ 80	≥ 80
CON(Cc1ccc(-c2noc(C(F)(F)F)n2)c(F)c1)S(C)(=O)=O [Compound 1.101, N-[[3-fluoro-4-[5-(trifluoromethyl)-1,2,4-oxadiazol-3-yl]phenyl]methyl]-N-methoxy-methanesulfonamide]		≥ 80	≥ 80	≥ 80	
CCCNS(=O)(=O)N(C)Cc1ccc(-c2noc(C(F)(F)F)n2)cc1 [Compound 1.23, 3-[4-[[methyl (propylsulfamoyl)amino]methyl]phenyl]-5-(trifluoromethyl)-1,2,4-oxadiazole]		≥ 80	≥ 80	≥ 80	≥ 80
CCCS(=O)(=O)Nc1ccc(-c2noc(C(F)(F)F)n2)cc1 [Compound 2.38, N-[4-[5-(trifluoromethyl)-1,2,4-oxadiazol-3-yl]phenyl]propane-1-sulfonamide]	65 to 75	≥ 80		≥ 80	

Source: US20210101874A1, “MICROBIOCIDAL OXADIAZOLE DERIVATIVES” (SYNGENTA PARTICIPATIONS AG, priority 2017, published 2021)
